Patent US20150307491A1, “SUBSTITUTED PYRIDOPYRAZINES AS SYK INHIBITORS” (HUTCHISON MEDIPHARMA LIMITED, priority 2012, published 2015)

Legend:
[1] = system: RBL-2H3 cells; assay: IgE-induced Beta-hexosaminidase secretion in RBL-2H3 cells; type: cell-based; conditions: Rattus norvegicus; RBL-2H3 cells sensitized with SPE-7, stimulated with DNP-BSA
Description: For the determination of IgE-induced Beta-hexosaminidase secretion, RBL-2H3 cells (SIBS) are seeded in 96 well plates at 4×10^4 cells per well and incubated in MEM media with 15% FBS and Glutamine ([…]) for 4 hours and sensitized with 0.5 ug/ml of SPE-7 overnight. Cells are washed 3 times with Tyrode's buffer and incubated in the presence or absence of various concentrations of the testing compound for 20 min at 37° C., 5% CO2. Cells are stimulated by adding 10 μL of DNP-BSA solution (150 ng/mL) to each well and incubating for 45 minutes at 37° C., 5% CO2. Then, 45 μL of the supernatant is taken and incubated with 100 μL of 1 mM 4-Nitrophenyl N-acetyl-β-D-glucosaminide (Sigma, Cat. No. N9376), which is diluted in 0.05 M citrate buffer (pH 4.5), for 1.5 hr at 37° C. The reactions are quenched by adding 185 μL of 0.05 M sodium carbonate buffer (pH 10.0). Plates are read at 405 nm on Multiskan (MK 3).

[2] = target: Syk kinase (Homo sapiens, UniProt P43405); assay: SYK enzymatic assay; type: biochemical; conditions: Tyr 2 Peptide, 8 concentrations 1 μM down to 0.0003 μM
Description: Syk kinase assay are performed in vitro using Kit-Tyr 2 Peptide (Invitrogen, Cat. No. PV3191) and in a 384-well assay plate. […] The 384-well assay plate (Corning, Cat. No. 3575) is mixed and incubated at room temperature for 1 hour. 10 μL of the Development Solution (prepared by diluting Development Reagent A (Cat. No. PV3297) to 1/32 with Development Buffer (Cat. No. PV3127)) is then added to each well, mixed and incubated at room temperature for another 1 hour. The reactions are then stopped by adding 10 μL of the Stop Reagent (Invitrogen, Cat. No. PV3094), and the plate is read with Wallac 1420 VICTOR^3 Multilabel Counter (PerkinElmer™) at 445 nm and 520 nm fluorescence. All compounds are tested at 8 concentrations (1 μM down to 0.0003 μM) using a 1:3 serial dilution scheme.

[3] = target: T1, Flt3 kinase (Homo sapiens, UniProt P36888); assay: Z-lyte kinase assay of Flt-3; type: biochemical; conditions: Z-LYTE Tyr 2 peptide; final concentrations 3 to 0.0014 μM
T1 construct: purchased Invitrogen PV3182
T1 sequence (P36888 564-993 limits assumed): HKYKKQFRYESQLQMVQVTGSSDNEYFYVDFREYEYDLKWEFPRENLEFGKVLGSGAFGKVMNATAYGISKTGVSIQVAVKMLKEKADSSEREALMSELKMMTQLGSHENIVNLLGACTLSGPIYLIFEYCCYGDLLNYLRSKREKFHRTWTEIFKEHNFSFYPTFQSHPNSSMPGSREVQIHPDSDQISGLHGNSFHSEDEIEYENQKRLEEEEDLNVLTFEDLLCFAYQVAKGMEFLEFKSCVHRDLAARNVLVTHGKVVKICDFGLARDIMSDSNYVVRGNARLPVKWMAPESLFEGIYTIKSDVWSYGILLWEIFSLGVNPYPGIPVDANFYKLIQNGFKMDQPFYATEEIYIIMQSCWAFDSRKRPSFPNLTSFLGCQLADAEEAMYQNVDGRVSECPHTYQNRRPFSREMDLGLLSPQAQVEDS
Description: Z-lyte kinase assay of Flt-3:
Dilute 5× Kinase Buffer to 1,33× with ddH2O
Serially dilute the test compounds to 4 folds of the concentrations desired, keeping the DMSO concentration at 8%. The final concentrations were 3, 1, 0.33, 0.11, 0.037, 0.012, 0.004, 0.0014 μM, and the final concentration of DMSO was 2%,
Prepare Kinase/Peptide Mixture by diluting the kinase to 0.12 μg/mL and the Z-LYTE™ Tyr 2 peptide to 4 μM in 1.33× Kinase Buffer. Mix gently by pipetting. 4) Phcspho-peptide Solution (PP solution)
Add 0.4 μL of Z-LYTE™ Tyr 2 Phospho-peptide to 99.6 μL of 1.33× Kinase Buffer.
Prepare ATP Solution by diluting the 10 mM of ATP in 1.33× Kinase Buffer to 1.88 mM.
Dilute Development Reagent A with Development Buffer as 1:64.
1) Kinase reaction (10 μL of Volume) • a. Add 2.5 μL of 4× test Cpds to each well except C1, C2, C3 wells
Add 2.5 μL of 8% DMSO to C1, C2, C3 wells • b. Put the 384-plate on ice • c. Add 5 μL of P/K mixture to each test Cpd wells and C1, C2 wells • d. Add 5 μL of PP Solution to C3 well • e. Add 2.5 μL of 1,33× kinase buffer to C1 and C3 wells • f. Add 2.5 μL of 4×ATP Solution to each test Cpd wells and C2 well, respectively.
Shake the plate for 30 Sec and centrifuge (1500 rpm, 1 min) • g. Seal the plate to protect from the light and incubate the plate for 1 hour at RT (25-30° C.) 2) Development reaction • a. Add 5 μL of the Development solution to all wells • b. Shake the plate for 30 Sec and centrifuge (1500 rpm, 1 min) • c. Seal the plate to protect from the light and incubate the plate for 1 hour at RT (25-30° C.) 3) Stop and read • a. Add 5 μL of the Stop reagent to all wells • b. Shake the plate for 30 Sec and centrifuge (1500 rpm, 1 min) • c. Measure the value of Coumarin (Ex400 nm, Em445 nm) and fluorescein (Ex400 nm, Em520 nm), respectively. 4. Data analysis
Emission Ratio (ER) Coumarin Emission (445 nm)/Fluorescein Emission (520 nm)
inhibition ratio (IR)=1−% Photest Cpd/% PhoC2%
IC50 Value: determined with add-in software for Microsoft Excel, XLfit™ (version 2.0) from ID Business Solutions (Guildford: UK)

SMILES	IC50 [2] [nM]	IC50 [3] [nM]	IC50 [1] [nM]
O=C(C(F)F)N1CCO[C@H](COc2nc(-c3ccc(C4CCOCC4)cc3)cc3nccnc23)C1 [Compound 9]	1 to 100		100 to 1000
O=C(C(F)F)N1CCO[C@H](COc2nc(-c3ccc(N4CCOCC4)c(F)c3)cc3nccnc23)C1 [Compound 15]	1 to 100		100 to 1000
CS(=O)(=O)N1CCO[C@H](COc2nc(-c3ccc4c(c3)OCCO4)cc3nccnc23)C1 [Compound 109]	1 to 100		100 to 1000
CNC(=O)N1CCO[C@H](COc2nc(-c3ccc(N(C)C)cc3)cc3nccnc23)C1 [Compound 137]			1 to 100
CNc1ccc(-c2cc3nccnc3c(OC[C@@H]3CN(C(=O)[C@H]4CCCO4)CCO3)n2)cc1 [Compound 51]			100 to 1000
CN(C)c1ccc(-c2cc3nccnc3c(OC[C@@H]3CN(C(=O)C(F)F)CCO3)n2)cc1F [Compound 32]		> 3000	1 to 100
CN(C)c1ccc(-c2cc3nccnc3c(OC[C@@H]3CN(C(=O)c4cccnc4)CCO3)n2)cc1 [Compound 78]			1 to 100
CN(C)c1ccc(-c2cc3nccnc3c(OC[C@@H]3CN(C(=O)C4CCOCC4)CCO3)n2)cc1 [Compound 73]			100 to 1000
CNc1ccc(-c2cc3nccnc3c(O[C@@H]3CCOC3)n2)cc1 [Compound 133]			1 to 100
CN(C)c1ccc(-c2cc3nccnc3c(OC[C@@H]3CN(C(=O)C4CCCC4)CCO3)n2)cc1 [Compound 98]			100 to 1000
CCN(CC)c1ccc(-c2cc3nccnc3c(OC[C@@H]3CN(S(C)(=O)=O)CCO3)n2)cc1 [Compound 119]			1 to 100
CS(=O)(=O)N1CCO[C@H](COc2nc(-c3ccc(N4CCOCC4)c(F)c3)cc3nccnc23)C1 [Compound 7]			100 to 1000
CS(=O)(=O)N1CCO[C@H](COc2nc(-c3ccc(C4CCOCC4)cc3)cc3nccnc23)C1 [Compound 11]			1 to 100
CN1CCC(c2ccc(-c3cc4nccnc4c(OC[C@@H]4CN(S(C)(=O)=O)CCO4)n3)cc2)CC1 [Compound 8]			100 to 1000
CCS(=O)(=O)N1CCO[C@H](COc2nc(-c3ccc(N(C)C)cc3)cc3nccnc23)C1 [Compound 88]			1 to 100
CNc1ccc(-c2cc3nccnc3c(OC[C@@H]3CN(C(=O)[C@H]4CCOC4)CCO3)n2)cc1 [Compound 50]			100 to 1000
CS(=O)(=O)N1CCO[C@H](COc2nc(-c3ccc4c(c3)OCO4)cc3nccnc23)C1 [Compound 110]			100 to 1000

The next lines start with results.

IC50 [2] [nM]	IC50 [3] [nM]	SMILES	IC50 [1] [nM]
	> 3000	CN(C)c1ccc(-c2cc3nccnc3c(OC[C@@H]3CN(S(=O)(=O)C4CC4)CCO3)n2)cc1 [Compound 90]	1 to 100
1 to 100		CN(C)c1ccc(-c2cc3nccnc3c(OC[C@@H]3CN(C(=O)[C@H]4CC[C@H](O)CC4)CCO3)n2)cc1 [Compound 75]	
1 to 100		CN(C)c1ccc(-c2cc3nccnc3c(OC[C@@H]3CN(C(=O)CC4CC4)CCO3)n2)cc1 [Compound 70]	100 to 1000
	> 3000	CN(C)c1ccc(-c2cc3nccnc3c(OC[C@@H]3CN(C(=O)C4CC4)CCO3)n2)cc1 [Compound 69]	1 to 100
1 to 100		CC(C)S(=O)(=O)N1CCO[C@H](COc2nc(-c3ccc(N(C)C)cc3)cc3nccnc23)C1 [Compound 89]	100 to 1000
	2520	CC(=O)N1CCO[C@H](COc2nc(-c3ccc(N(C)C)cc3)cc3nccnc23)C1 [Compound 67]	1 to 100
	2010	CN(C)c1ccc(-c2cc3nccnc3c(OC[C@@H]3CN(S(C)(=O)=O)CCO3)n2)cc1 [Compound 94]	1 to 100
	2820	CN(C)c1ccc(-c2cc3nccnc3c(OC[C@@H]3CN(C(=O)[C@H]4CCOC4)CCO3)n2)cc1 [Compound 95]	1 to 100
	> 3000	CN(C)c1ccc(-c2cc3nccnc3c(OC[C@@H]3CN(C(=O)C(F)F)CCO3)n2)cc1 [Compound 100]	1 to 100
